Laboratory results: patent US6255339A, “Tetrahydronaphthofuranone derivatives and process for producing the same” (Meiji Seika Kaisha, Ltd., priority 1996, dated 2001)

Experiments:
[1] = Solubility; format: physicochemical; details: for Solubility (solvents in which soluble): organic solvents; for Solubility (solvents in which insoluble): water and hexane
[2] = target: T1, progesterone receptor (Sus scrofa, UniProt D0EWS6); test: progesterone receptor binding inhibition ([^3 H]-progesterone, cytosol from uteri of hogs); details: [^3 H]-progesterone ligand, hog uterus cytosol, 60 min at 4° C.; read-out: Inhibitory activity (IC50) against progesterone receptor binding
T1 construct: from tissue; host or cells: hog uterus, cytosol (100,000×g supernatant)
T1 sequence (D0EWS6 1-934): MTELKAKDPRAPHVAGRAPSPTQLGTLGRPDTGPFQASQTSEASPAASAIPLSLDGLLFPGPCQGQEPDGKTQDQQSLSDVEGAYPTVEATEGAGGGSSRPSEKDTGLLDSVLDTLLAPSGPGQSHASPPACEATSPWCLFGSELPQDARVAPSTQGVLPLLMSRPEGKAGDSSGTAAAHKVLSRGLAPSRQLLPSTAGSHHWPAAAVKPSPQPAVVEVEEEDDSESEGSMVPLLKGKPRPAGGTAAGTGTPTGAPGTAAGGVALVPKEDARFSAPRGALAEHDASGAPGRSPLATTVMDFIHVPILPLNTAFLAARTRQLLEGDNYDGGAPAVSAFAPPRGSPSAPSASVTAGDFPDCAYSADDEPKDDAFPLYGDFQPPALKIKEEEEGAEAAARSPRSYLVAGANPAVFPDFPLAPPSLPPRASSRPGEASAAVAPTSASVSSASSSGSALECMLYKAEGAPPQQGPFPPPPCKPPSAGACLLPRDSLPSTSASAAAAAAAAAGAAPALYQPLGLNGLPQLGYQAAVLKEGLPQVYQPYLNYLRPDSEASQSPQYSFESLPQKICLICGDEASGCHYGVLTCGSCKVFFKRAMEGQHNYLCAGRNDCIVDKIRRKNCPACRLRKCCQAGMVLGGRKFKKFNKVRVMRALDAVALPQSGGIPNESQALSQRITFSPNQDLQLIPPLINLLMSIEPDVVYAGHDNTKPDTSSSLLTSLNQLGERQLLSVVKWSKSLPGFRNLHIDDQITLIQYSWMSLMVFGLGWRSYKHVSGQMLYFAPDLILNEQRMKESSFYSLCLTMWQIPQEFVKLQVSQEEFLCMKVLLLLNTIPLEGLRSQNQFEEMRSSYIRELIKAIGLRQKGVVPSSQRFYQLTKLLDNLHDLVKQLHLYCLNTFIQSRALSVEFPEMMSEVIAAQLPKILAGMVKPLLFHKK
Method: That is, uteri taken from hogs in 5 mM phosphate buffer were disrupted using Polytron homogenizer, and the resulting solution was centrifuged (100,000×g, 30 min) to separate the supernatant, thereby preparing a cytosol containing progesterone receptor. […] Then, 100 μl of a 0.5% activated carbon solution was added to the reaction solution, and the mixture was allowed to stand for 10 min and then centrifuged (2,000×g, 10 min). The radioactivity of the supernatant was measured with a liquid scintillation counter.
Separately, the radioactivity was measured in the same manner as described above, except that no test drug was added. Further, the radioactivity was measured in the same manner as described above, except that 10 μl of Medroxyprogesterone Acetate (MPA) (10 μg/ml) was added instead of the test drug. The radioactivity with no test drug added was defined as the amount of total binding of [^3 H]-progesterone to the cytosol, and the radioactivity with MPA added was defined as the amount of non-specific binding. The inhibition ratio was calculated from these measured values by the following equation to determine the binding inhibitory activity (IC50). [formula]

[3] = Acute Toxicity; format: in vivo, SD male rat
Method: The compound of Example A4 dissolved in 0.2% of methylcellulose solution was hypodermically administered to SD male rat (16 weeks old) at a dose of 60 mg/kg.

Row | Compound | Solubility (solvents in which soluble) [1] | Solubility (solvents in which insoluble) [1] | IC50 [2] [µM] | survival ([3]; SD male rat (16 weeks old), hypodermic, 60 mg/kg in 0.2% methylcellulose) | toxicity ([3]; rat, in vivo, 60 mg/kg)
1 | CC1=C2C[C@@]3(C)C(=C[C@H](O)[C@H](O)[C@@H]3C)C=C2OC1=O [PF1092C] | soluble in chloroform, acetone, ethyl acetate, methanol and dimethyl sultoxide | insoluble in water and hexane | – | – | –
2 | CCC(=O)O[C@H]1[C@@H](OC(=O)CC)C=C2C=C3OC(=O)C(C)=C3C[C@]2(C)[C@H]1C [Example A4, (4aR,5R,6R,7S)-6,7-Dipropionyloxy-4a,5,6,7-tetrahydro-3,4a,5-trimethylnaphtho[2,3-b]furan-2(4H)-one] | – | – | 0.032 | all the animals survived | no significant toxicity
3 | CC(=O)O[C@H]1[C@@H](O)C=C2C=C3OC(=O)C(C)=C3C[C@]2(C)[C@H]1C [PF1092A] | soluble in chloroform, acetone, ethyl acetate, methanol and dimethyl sulioxide | insoluble in water and hexane | – | – | –
